The source of these data is ChEMBL document CHEMBL1938310, “Discovery of novel antitubercular 1,5-dimethyl-2-phenyl-4-([5-(arylamino)-1,3,4-oxadiazol-2-yl]methylamino)-1,2-dihydro-3H-pyrazol-3-one analogues” (Bioorg Med Chem Lett, 2012).

SMILES strings stand for the structures. ≈ marks a conversion by molar mass, not a printed value. Some results are limits rather than exact numbers.

For data set [1], the system named is Mycobacterium tuberculosis. Nature of the data set: Antimycobacterial activity against Mycobacterium tuberculosis H37Rv by two fold agar dilution method. The class given is functional. (In general: Agar dilution tests growth on a series of plates holding different concentrations.)
Another data set relates to Vero. The data set can be described thus: Cytotoxicity against African green monkey Vero cells at 62.5 ug/ml after 72 hrs by MTT assay. The class given is cell-based. The settings on record: chlorocebus sabaeus.

As usually defined, the MIC is the lowest concentration found to suppress growth. Regarding `Cc1ccc(Nc2nnc(CNc3c(C)n(C)n(-c4ccccc4)c3=O)o2)cc1`, in data set [1], inhibition of growth (MIC) required 12.5 µg/mL (≈ 32 µM).
In data set [1], `Cc1c(Cl)cccc1Nc1nnc(CNc2c(C)n(C)n(-c3ccccc3)c2=O)o1` yielded an MIC of 10 µg/mL (≈ 23.5 µM).
As to `Cc1c(NCc2nnc(Nc3ccc([N+](=O)[O-])cc3)o2)c(=O)n(-c2ccccc2)n1C`, the lowest concentration to inhibit growth in data set [1] (MIC) was 3.12 µg/mL (≈ 7.4 µM). The Activity result in the data set on Vero was “Non-toxic”.
Compound `CCOc1ccc(Nc2nnc(CNc3c(C)n(C)n(-c4ccccc4)c3=O)o2)cc1` gave an MIC in data set [1] of over 12.5 µg/mL.
For the compound `Cc1c(NCc2nnc(Nc3ccc(O)cc3)o2)c(=O)n(-c2ccccc2)n1C`, the MIC in data set [1] amounted to 10 µg/mL (≈ 25.5 µM).
As for `Cc1c(NCc2nnc(Nc3ccc(F)c(Cl)c3)o2)c(=O)n(-c2ccccc2)n1C`, the MIC in data set [1] was determined as 6.25 µg/mL (≈ 14.6 µM). Also, in the data set with Vero, the Activity result is “Non-toxic”.
For `Cc1c(NCc2nnc(Nc3ccc(S(N)(=O)=O)cc3)o2)c(=O)n(-c2ccccc2)n1C`, in that order: 3.12 µg/mL (≈ 6.85 µM) and “Non-toxic”.
In turn, `Cc1ccc(Nc2nnc(CNc3c(C)n(C)n(-c4ccccc4)c3=O)o2)c(C)c1` showed an MIC in data set [1] of 12.5 µg/mL (≈ 30.9 µM).
Still for that read-out and setting: the value for `Cc1c(NCc2nnc(Nc3ccccc3Cl)o2)c(=O)n(-c2ccccc2)n1C` was 10 µg/mL (≈ 24.3 µM); that for `COc1ccc(Nc2nnc(CNc3c(C)n(C)n(-c4ccccc4)c3=O)o2)c(OC)c1` was over 12.5 µg/mL.
As for `Cc1c(NCc2nnc(Nc3ccc(Cl)cc3)o2)c(=O)n(-c2ccccc2)n1C`, in data set [1], it took 6.25 µg/mL (≈ 15.2 µM) to inhibit growth (MIC). In the data set on Vero, the Activity result was “Non-toxic”.
Consider `NNC(=O)c1ccncc1` [ISONIAZID], for which 0.78 µg/mL (≈ 5.69 µM) was the least that counted as inhibitory in data set [1] (MIC).
In turn, `Cc1c(NCc2nnc(Nc3ccc(Br)cc3)o2)c(=O)n(-c2ccccc2)n1C` came in with an MIC in data set [1] of 6.25 µg/mL (≈ 13.7 µM). Also, in the data set with Vero, the Activity result is given as “Non-toxic”.
In the case of `COc1ccc(Nc2nnc(CNc3c(C)n(C)n(-c4ccccc4)c3=O)o2)cc1`, the MIC in data set [1] is 12.5 µg/mL (≈ 30.8 µM).
Still for that read-out and setting: the value for `Cc1c(NCc2nnc(Nc3ccccc3)o2)c(=O)n(-c2ccccc2)n1C` was 10 µg/mL (≈ 26.6 µM).
In turn, `Cc1c(NCc2nnc(Nc3ccc(F)cc3)o2)c(=O)n(-c2ccccc2)n1C` displayed an MIC in data set [1] of 0.78 µg/mL (≈ 1.98 µM). In the data set on Vero, the Activity entry is given as “Non-toxic”.
Compound `Cc1cccc(C)c1Nc1nnc(CNc2c(C)n(C)n(-c3ccccc3)c2=O)o1` registered an MIC in data set [1] of 10 µg/mL (≈ 24.7 µM).
